pIC50: −log10 of the molar value.

From patent publication US20170152239A1, “BENZAMIDE AND HETEROBENZAMIDE COMPOUNDS” (PFIZER INC., priority 2012, published 2017) come the findings set out here.

Test [1] concerns the target WT EZH2 (EZH2 4 protein complex: EZH2, EED, SUZ12, RbAp48) (Homo sapiens, UniProt O75530+Q09028+Q15022+Q15910). Kind of test: WT EZH2 nucleosome assay. The test is classed as biochemical. The settings on record: nucleosome assay, 5 nM EZH2 4-protein complex, 1.5 μM SAM; read-out: WT EZH2 IC50. The procedure, abridged:
(§1)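 IC50 values come from 4-parameter fits of 11-point dose responses, with % effect also given at 20 μM. Reactions held HeLa oligonucleosomes (25 μg/mL), rH1 (50 nM), 1.5 μM tritiated SAM and 5 nM enzyme complex at pH 8.5 Tris/DTT/Tween; stopped by TCA after 60 min, filtered and scintillation-counted.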

Test [2] deals with WT EZH2 (EZH2 4 protein complex: EZH2, EED, SUZ12, RbAp48) (Homo sapiens, UniProt Q15910). Kind of test: WT EZH2 nucleosome assay. The test is classed as biochemical. The following applies: compound at 20 μM; nucleosome assay. Put shortly:
as §1

Chain of WT EZH2 (EZH2 4 protein complex: EZH2, EED, SUZ12, RbAp48) (Homo sapiens, UniProt Q15910) (Q15910 whole entry): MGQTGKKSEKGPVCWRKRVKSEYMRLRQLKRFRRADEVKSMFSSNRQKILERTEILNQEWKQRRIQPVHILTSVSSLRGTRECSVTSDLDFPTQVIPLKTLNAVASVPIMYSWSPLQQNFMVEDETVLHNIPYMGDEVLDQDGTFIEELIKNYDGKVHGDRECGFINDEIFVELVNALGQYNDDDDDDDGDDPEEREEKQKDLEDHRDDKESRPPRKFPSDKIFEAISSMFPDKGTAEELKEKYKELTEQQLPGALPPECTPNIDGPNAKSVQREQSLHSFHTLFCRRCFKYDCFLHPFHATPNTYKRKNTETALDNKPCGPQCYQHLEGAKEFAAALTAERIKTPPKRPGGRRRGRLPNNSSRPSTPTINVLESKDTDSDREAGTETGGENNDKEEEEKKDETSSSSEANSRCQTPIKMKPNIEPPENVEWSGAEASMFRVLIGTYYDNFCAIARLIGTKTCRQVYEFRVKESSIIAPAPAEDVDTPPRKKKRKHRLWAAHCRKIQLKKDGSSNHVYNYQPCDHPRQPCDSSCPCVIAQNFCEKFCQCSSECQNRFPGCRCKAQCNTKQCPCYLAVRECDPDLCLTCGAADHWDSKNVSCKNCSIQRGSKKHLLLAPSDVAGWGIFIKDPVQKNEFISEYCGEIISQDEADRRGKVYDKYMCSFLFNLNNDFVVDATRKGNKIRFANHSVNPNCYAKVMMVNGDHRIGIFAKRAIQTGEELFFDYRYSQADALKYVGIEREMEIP
Chain of WT EZH2 (EZH2 4 protein complex: EZH2, EED, SUZ12, RbAp48) (Homo sapiens, UniProt Q15910) (O75530 whole entry partner): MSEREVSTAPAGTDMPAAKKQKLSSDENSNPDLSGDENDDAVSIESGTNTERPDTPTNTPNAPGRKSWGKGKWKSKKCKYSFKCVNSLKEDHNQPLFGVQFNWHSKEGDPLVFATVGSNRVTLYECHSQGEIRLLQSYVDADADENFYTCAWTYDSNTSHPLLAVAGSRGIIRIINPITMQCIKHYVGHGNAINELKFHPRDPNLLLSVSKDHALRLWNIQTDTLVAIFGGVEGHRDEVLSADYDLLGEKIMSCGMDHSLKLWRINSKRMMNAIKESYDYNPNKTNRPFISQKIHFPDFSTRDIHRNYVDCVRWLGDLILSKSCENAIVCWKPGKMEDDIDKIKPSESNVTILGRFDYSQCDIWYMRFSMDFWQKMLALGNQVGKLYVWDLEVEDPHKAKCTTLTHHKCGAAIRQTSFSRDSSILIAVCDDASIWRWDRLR
Chain of WT EZH2 (EZH2 4 protein complex: EZH2, EED, SUZ12, RbAp48) (Homo sapiens, UniProt Q15910) (Q15022 whole entry partner): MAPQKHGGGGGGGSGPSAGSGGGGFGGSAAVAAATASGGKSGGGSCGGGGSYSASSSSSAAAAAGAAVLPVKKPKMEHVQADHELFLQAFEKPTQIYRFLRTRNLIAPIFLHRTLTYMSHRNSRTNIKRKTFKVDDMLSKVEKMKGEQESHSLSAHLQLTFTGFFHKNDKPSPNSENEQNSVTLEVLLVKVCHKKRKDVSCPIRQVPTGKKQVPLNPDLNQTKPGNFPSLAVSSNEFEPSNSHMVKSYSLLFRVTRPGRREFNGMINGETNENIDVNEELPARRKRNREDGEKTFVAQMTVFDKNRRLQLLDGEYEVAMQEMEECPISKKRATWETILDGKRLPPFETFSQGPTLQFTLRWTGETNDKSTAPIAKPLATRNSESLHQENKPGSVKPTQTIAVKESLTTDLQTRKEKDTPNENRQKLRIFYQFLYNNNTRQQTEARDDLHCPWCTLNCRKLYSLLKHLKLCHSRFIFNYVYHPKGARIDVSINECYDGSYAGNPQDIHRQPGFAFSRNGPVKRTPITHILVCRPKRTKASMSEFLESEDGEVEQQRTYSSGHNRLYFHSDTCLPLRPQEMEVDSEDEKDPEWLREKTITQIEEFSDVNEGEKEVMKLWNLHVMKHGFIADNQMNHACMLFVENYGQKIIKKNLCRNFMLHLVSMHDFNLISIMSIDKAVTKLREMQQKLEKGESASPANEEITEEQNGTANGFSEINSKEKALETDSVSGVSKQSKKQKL
Chain of WT EZH2 (EZH2 4 protein complex: EZH2, EED, SUZ12, RbAp48) (Homo sapiens, UniProt Q15910) (Q09028 whole entry partner): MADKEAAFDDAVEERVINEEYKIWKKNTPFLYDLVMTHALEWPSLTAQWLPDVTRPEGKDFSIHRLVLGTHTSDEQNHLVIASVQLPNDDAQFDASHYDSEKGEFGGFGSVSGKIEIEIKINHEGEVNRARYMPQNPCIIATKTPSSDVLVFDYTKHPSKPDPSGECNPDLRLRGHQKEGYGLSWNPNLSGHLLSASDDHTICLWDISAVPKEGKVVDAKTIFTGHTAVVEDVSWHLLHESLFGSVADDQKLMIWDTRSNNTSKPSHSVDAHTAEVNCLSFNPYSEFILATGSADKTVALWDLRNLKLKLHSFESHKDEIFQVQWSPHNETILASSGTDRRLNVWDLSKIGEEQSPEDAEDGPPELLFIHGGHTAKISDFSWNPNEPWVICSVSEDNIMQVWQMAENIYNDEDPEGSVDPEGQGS
Chain of WT EZH2 (EZH2 4 protein complex: EZH2, EED, SUZ12, RbAp48) (Homo sapiens, UniProt O75530+Q09028+Q15022+Q15910) (Q15910 whole entry): as the sequence (Q15910 whole entry) above
Chain of WT EZH2 (EZH2 4 protein complex: EZH2, EED, SUZ12, RbAp48) (Homo sapiens, UniProt O75530+Q09028+Q15022+Q15910) (O75530 whole entry partner): as the sequence (O75530 whole entry partner) above
Chain of WT EZH2 (EZH2 4 protein complex: EZH2, EED, SUZ12, RbAp48) (Homo sapiens, UniProt O75530+Q09028+Q15022+Q15910) (Q15022 whole entry partner): as the sequence (Q15022 whole entry partner) above
Chain of WT EZH2 (EZH2 4 protein complex: EZH2, EED, SUZ12, RbAp48) (Homo sapiens, UniProt O75530+Q09028+Q15022+Q15910) (Q09028 whole entry partner): as the sequence (Q09028 whole entry partner) above

In general, pIC50 refers to −log10 of the IC50, conventionally taken in molar units. On to `Cc1cc(C)c(CNC(=O)c2ncnc(OC(C)C)c2Cl)c(=O)[nH]1` [Example 85], for which the pIC50 in test [1] is 5.04. In addition, the “% Effect in WT EZH2 at 20 μM” value in test [2] is recorded as 69.248%.
For `Cc1cc(C)c(CNC(=O)c2c(F)ccc(OC(C)C)c2Cl)c(=O)[nH]1` [Example 86, 2-chloro-N-[(4,6-dimethyl-2-oxo-1,2-dihydropyridin-3-yl)methyl]-6-fluoro-3-isopropoxy-benzamide], the pIC50 in test [1] is 5.03. Further, the “% Effect in WT EZH2 at 20 μM” value in test [2] was 64.416%.
For `COc1c(OC(C)C)cccc1C(=O)NCc1c(C)cc(C)[nH]c1=O` [Example 113, N-[(4,6-dimethyl-2-oxo-1,2-dihydropyridin-3-yl)methyl]-3-isopropoxy-2-methoxy-benzamide], in that order: 4.57 and 43.834%.
For the compound `COc1ccc(OC)c(C(=O)NCc2c(C)cc(C)[nH]c2=O)c1Cl` [Example 119, 2-chloro-N-[(4,6-dimethyl-2-oxo-1,2-dihydropyridin-3-yl)methyl]-3,6-dimethoxy-benzamide], the pIC50 in test [1] was 4.43. Further, the “% Effect in WT EZH2 at 20 μM” value in test [2] is 44.087%.
Consider `COc1cc(OC)c(Cl)c(C(=O)NCc2c(C)cc(C)[nH]c2=O)c1Cl` [Example 126, 2,6-dichloro-N-[(4,6-dimethyl-2-oxo-1,2-dihydropyridin-3-yl)methyl]-3,5-dimethoxybenz-amide], for which, in test [1], the pIC50 is 4.28. The “% Effect in WT EZH2 at 20 μM” value in test [2] is listed as 38.121%.
Take `COc1ccc(C(=O)NCc2c(C)cc(C)[nH]c2=O)c(Cl)c1OC` [Example 127, 2-chloro-N-[(4,6-dimethyl-2-oxo-1,2-dihydropyridin-3-yl)methyl]-3,4-dimethoxy-benzamide]: in test [1], the pIC50 was 4.27. Also, in test [2], the “% Effect in WT EZH2 at 20 μM” value amounted to 35.052%.
On to `CCCc1c(OC)cccc1C(=O)NCc1c(C)cc(C)[nH]c1=O` [Example 128, N-[(4,6-dimethyl-2-oxo-1,2-dihydropyridin-3-yl)methyl]-3-methoxy-2-propylbenzamide], for which the pIC50 in test [1] is 4.27. For the same compound, the “% Effect in WT EZH2 at 20 μM” value in test [2] is 38.993%.
On to `Cc1cc(C)c(CNC(=O)c2c(Cl)ccc(OCCN3CCCC3)c2Cl)c(=O)[nH]1` [Example 129, 2,6-dichloro-N-[(4,6-dimethyl-2-oxo-1,2-dihydropyridin-3-yl)methyl]-3-(2-pyrrolidin-1-ylethoxy)benza-mide], for which, in test [1], the pIC50 was 4.27. In addition, in test [2], the “% Effect in WT EZH2 at 20 μM” value came to 32.145%.
For the compound `COc1cccc(C(=O)NCc2c(C)cc(C)[nH]c2=O)c1F` [Example 137, N-[(4,6-dimethyl-2-oxo-1,2-dihydropyridin-3-yl)methyl]-2-fluoro-3-methoxybenz-amide], the pIC50 in test [1] is 3.78. Also, in test [2], the “% Effect in WT EZH2 at 20 μM” value was 20.924%.
On to `Cc1cc(C)c(CNC(=O)c2ccnc(OC(C)C)c2F)c(=O)[nH]1` [Example 138, N-[(4,6-dimethyl-2-oxo-1,2-dihydropyridin-3-yl)methyl]-3-fluoro-2-isopropoxyiso-nicotinamide], for which the pIC50 in test [1] was 3.76. In addition, in test [2], the “% Effect in WT EZH2 at 20 μM” value was 44.736%.
